Source: publication PMC7127469 (European Journal of Medicinal Chemistry, 2010)

Tests used:
Assay type in all cases: cell-based
influenza A H3N2 subtype = assay: Antiviral assay, inhibition of virus-induced cytopathic effect, MDCK cells
influenza A H1N1 subtype = assay: as above
[1] = system: Vesicular stomatitis virus; assay: microbe, parasite or virus in culture; settings: HEL
[2] = system: herpes simplex virus-2 (G); assay: microbe, parasite or virus in culture; settings: Human alphaherpesvirus 2, HEL, virus e, HEL cells
feline herpes virus = assay: organism not typed; settings: CRFK, virus o, CRFK cells
[3] = system: herpes simplex virus-1(KOS); assay: microbe, parasite or virus in culture; settings: Human alphaherpesvirus 1, HEL, virus d, HEL cells
vaccinia virus = assay: microbe, parasite or virus in culture; settings: Orthopoxvirus vaccinia, HEL
influenza B = assay: Antiviral assay, inhibition of virus-induced cytopathic effect, MDCK cells
reovirus-1 = assay: organism not typed; settings: Vero, virus j, reovirus-1, Vero cells
punta toro virus = assay: microbe, parasite or virus in culture; settings: Vero, virus m, Vero cells
coxsackie virus B4 = assay: microbe, parasite or virus in culture; settings: Enterovirus B, B4, HeLa, coxsackie virus B4, HeLa cells
para-influenza-3 virus = assay: organism not typed; settings: Vero, virus i, Vero cells
coxsakie virus B4 = assay: organism not typed; settings: Vero
sindbis virus = assay: microbe, parasite or virus in culture; settings: Vero, virus k, Vero cells
[4] = system: Vesicular stomatitis virus; assay: microbe, parasite or virus in culture; settings: HeLa
[5] = virus q, influenza A H3N2 subtype, MDCK cells
[6] = virus p, influenza A H1N1 subtype, MDCK cells

CC(N)C12CC3CC(CC(C3)C1)C2 (centres unmarked) [Rimantidin]
EC50 (influenza A H3N2 subtype; [5]): 0.8 µM
EC50 (influenza A H1N1 subtype; [6]): 20 µM

NC12CC3CC(CC(C3)C1)C2 [Amantidin]
EC50 (influenza A H3N2 subtype; [5]): 4 µM
EC50 (influenza A H1N1 subtype; [6]): 45 µM

Nc1nc(O)c2ncn(COC(CO)CO)c2n1 [Ganciclovir]
EC50 [1]: > 100 µM
EC50 [2]: 0.03 µM
EC50 (feline herpes virus): 2.6 µM
EC50 [3]: 0.03 µM
EC50 (vaccinia virus): > 100 µM

CCC(CC)O[C@@H]1C=C(C(=O)O)C[C@H](N)[C@H]1NC(C)=O [Oseltamivir-carboxylate]
EC50 (influenza A H3N2 subtype; Influenza A virus, H3N2, MDCK): 1.7 µM
EC50 (influenza A H1N1 subtype; Influenza A virus, H1N1, MDCK): 0.07 µM
EC50 (influenza B): 4 µM

Nc1ncnc2c1ncn2C[C@H](O)CO [(S)-DHPA]
EC50 (reovirus-1): > 250 µM
EC50 (punta toro virus): > 250 µM
EC50 (coxsackie virus B4): > 250 µM
EC50 (para-influenza-3 virus): > 250 µM
EC50 (coxsakie virus B4): > 250 µM
EC50 (sindbis virus): > 250 µM

NC(=O)c1ncn([C@@H]2O[C@H](CO)[C@@H](O)[C@H]2O)n1 [Ribavirin]
EC50 [1]: > 250 µM
EC50 [2]: 50 µM
EC50 (reovirus-1): 250 µM
EC50 (punta toro virus): 50 µM
EC50 (coxsackie virus B4): 30 µM
EC50 [3]: 10 µM
EC50 (influenza A H3N2 subtype; Influenza A virus, H3N2, MDCK): 9 µM
EC50 (para-influenza-3 virus): 95 µM
EC50 [4]: 10 µM
EC50 (influenza A H1N1 subtype; Influenza A virus, H1N1, MDCK): 7 µM
EC50 (vaccinia virus): 85 µM
EC50 (coxsakie virus B4): > 250 µM
EC50 (influenza B): 9 µM

O=c1[nH]c(=O)n([C@H]2C[C@H](O)[C@@H](CO)O2)cc1/C=C/Br [Brivudine]
EC50 [1]: > 250 µM
EC50 [2]: 50 µM
EC50 [3]: 0.08 µM
EC50 (vaccinia virus): 2 µM
